In experiment [1] the target is T1, CCK-B receptors (CHO-CCK) (Homo sapiens, UniProt P32239).
T1 construct: expressed in transfected cells; host or cells: CHO (CHO-CCK model cells)
T1 sequence (P32239 1-447): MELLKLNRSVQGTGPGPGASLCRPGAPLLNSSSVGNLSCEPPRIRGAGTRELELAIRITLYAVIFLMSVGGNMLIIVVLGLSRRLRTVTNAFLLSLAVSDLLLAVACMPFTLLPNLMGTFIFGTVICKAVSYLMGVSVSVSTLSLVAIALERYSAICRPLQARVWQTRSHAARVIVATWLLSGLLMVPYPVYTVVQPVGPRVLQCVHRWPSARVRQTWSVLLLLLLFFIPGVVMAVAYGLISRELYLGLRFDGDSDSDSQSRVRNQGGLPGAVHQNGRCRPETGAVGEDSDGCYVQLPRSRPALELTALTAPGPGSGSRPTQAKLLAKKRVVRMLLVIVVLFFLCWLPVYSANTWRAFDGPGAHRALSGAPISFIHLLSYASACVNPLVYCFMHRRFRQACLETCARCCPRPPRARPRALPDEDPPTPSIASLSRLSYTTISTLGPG
Kind of experiment: Calcium flux (Fluo-8) agonist test on CHO-CCK model cells. In kind it is cell-based. The conditions noted are these: CHO-CCK cells, Fluo-8 calcium flux; 100% control = 20 nM CCK8. In a few lines: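 Agonist-mode Fluo-8 calcium flux read on CHO-CCK cells after dye loading 30 min at 37 °C plus 30 min at room temperature.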
On the technique in general: Calcium assays in cells follow changes in intracellular calcium, usually with a dye or a luminescent sensor.

The target in experiment [2] is T1, CCK-B receptors (CHO-CCK). The experiment is described as follows: Calcium flux (Fluo-8) antagonist test on CHO-CCK model cells in presence of CCK8. Format: cell-based.
The mark [3] stands for this setting: in presence of 10 nM CCK8, bound in μM.

The text below walks through data of patent US20240415918A1, “Polypeptide and its use as a CCK receptor agonist/antagonist” (Centre for Regenerative Medicine & Health, Hong Kong …, priority 2021, published 2024).

A word on the EC50: it is the midpoint of the concentration-response curve.

Where a SMILES comes first, the peptide text is derived from it. [ ]: non-standard residue; d: D form. The star is where a group is joined. dTrp(2-Me) = Cc1[nH]c2ccccc2c1C[C@@H](N)C(=O)O; Phe(3-Br) = N[C@@H](Cc1cccc(Br)c1)C(=O)O; dNMeW = CN[C@H](Cc1c[nH]c2ccccc12)C(=O)O; dGly(nOct) = CCCCCCCC[C@@H](N)C(=O)O; Fmoc = O=C(OCC1c2ccccc2-c2ccccc21)*; Gly(octyl) = CCCCCCCC[C@H](N)C(=O)O; dAoc(2) = CCCCCC[C@@H](N)C(=O)O; Aad = N[C@@H](CCCC(=O)O)C(=O)O; Aoc(2) = CCCCCC[C@H](N)C(=O)O; Ahp(2) = CCCCC[C@H](N)C(=O)O; Nle = CCCC[C@H](N)C(=O)O

On to `CCCC[C@H](NC(=O)[C@@H](Cc1c[nH]c2ccccc12)N(C)C(=O)OCC1c2ccccc2-c2ccccc21)C(=O)N[C@@H](CC(=O)OC)C(=O)N[C@@H](Cc1cccc(Br)c1)C(N)=O` [HT-253, Fmoc-(N-Me-Trp)-Nle-Asp(O-Me)-Phe(3-Br)-NH2] (Fmoc-[dNMeW][Nle]D(OMe)[Phe(3-Br)]-NH2), for which the EC50 in experiment [1] is 744 nM; in experiment [2] (in presence of 10 nM CCK8), 1.92 µM.

Consider `CCCCC[C@H](NC(=O)[C@@H](Cc1c[nH]c2ccccc12)N(C)C(=O)OCC1c2ccccc2-c2ccccc21)C(=O)N[C@@H](CC(=O)OC)C(=O)N[C@@H](Cc1cccc(Br)c1)C(N)=O` [HT-254, Fmoc-(N-Me-Trp)-Pa-Asp(O-Me)-Phe(3-Br)-NH2] (Fmoc-[dNMeW][Ahp(2)]D(OMe)[Phe(3-Br)]-NH2), for which the values for the EC50 in experiment [1] and in experiment [2] (in presence of 10 nM CCK8) were 22.6 nM and 1.04 µM, respectively.

`CSCC[C@H](NC(=O)[C@@H](Cc1cc2ccccc2[nH]1)NC(=O)[C@@H](N)CCC(=O)O)C(=O)N[C@@H](CC(=O)O)C(=O)N[C@@H](Cc1cccc(Br)c1)C(N)=O` [HT-255, Glu-D-Trp-Met-Asp-Phe(3-Br)-NH2]: the values for the concentration giving a half-maximal response (EC50) in experiment [1] and in experiment [2] (in presence of 10 nM CCK8) were 0.569 nM and 0.0403 µM, respectively.

For `CSCC[C@H](NC(=O)[C@@H](Cc1cc2ccccc2[nH]1)NC(=O)[C@@]1(O)C[C@@H](O)[C@H](NC(C)=O)C([C@@H](O)[C@@H](O)CO)O1)C(=O)N[C@@H](CC(=O)O)C(=O)N[C@@H](Cc1cccc(Br)c1)C(N)=O` (stereo partly drawn) [HT-256, Sia-D-Trp-Met-Asp-Phe(3-Br)-NH2], the EC50 in experiment [1] was 0.672 nM; in experiment [2] (in presence of 10 nM CCK8) it was 0.0419 µM.

`CCCCC[C@H](NC(=O)[C@@H](Cc1c[nH]c2ccccc12)NC(C)=O)C(=O)N[C@@H](CC(=O)O)C(=O)N[C@@H](Cc1cccc(Br)c1)C(N)=O` [HT-257, Ac-D-Trp-Pa-Asp-Phe(3-Br)-NH2] (Ac-[dW][Ahp(2)]D[Phe(3-Br)]-NH2): the EC50 in experiment [1] came out at 3.34 nM; in experiment [2] (in presence of 10 nM CCK8), 0.132 µM.

Consider `CCCCC[C@H](NC(=O)[C@@H](Cc1c[nH]c2ccccc12)N(C)C(=O)OCC1c2ccccc2-c2ccccc21)C(=O)N[C@@H](CC(=O)O)C(=O)N[C@@H](Cc1cccc(Br)c1)C(N)=O` [HT-258, Fmoc-(N-Me-Trp)-Pa-Asp-Phe(3-Br)-NH2] (Fmoc-[dNMeW][Ahp(2)]D[Phe(3-Br)]-NH2), for which the EC50 is 22.6 nM in experiment [1] and 1.04 µM in experiment [2] (in presence of 10 nM CCK8).

For `CCCCCC[C@H](NC(=O)[C@H](Cc1c[nH]c2ccccc12)NC(C)=O)C(=O)N[C@@H](CC(=O)O)C(=O)N[C@@H](Cc1cccc(Br)c1)C(N)=O` [HT-259, Ac-D-Trp-Oa-Asp-Phe(3-Br)-NH2] (Ac-W[Aoc(2)]D[Phe(3-Br)]-NH2), the EC50 amounted to 2.29 nM in experiment [1] and 0.0592 µM in experiment [2] (in presence of 10 nM CCK8).

With `CCCCCCC[C@H](NC(=O)[C@H](Cc1c[nH]c2ccccc12)NC(C)=O)C(=O)N[C@@H](CC(=O)O)C(=O)N[C@@H](Cc1cccc(Br)c1)C(N)=O` [HT-260, Ac-D-Trp-Na-Asp-Phe(3-Br)-NH2], the EC50 in experiment [1] came to 160 nM; in experiment [2] (in presence of 10 nM CCK8), 2.74 µM.

Take `CCCCCCCC[C@H](NC(=O)[C@H](Cc1c[nH]c2ccccc12)NC(C)=O)C(=O)N[C@@H](CC(=O)O)C(=O)N[C@@H](Cc1cccc(Br)c1)C(N)=O` [HT-261, Ac-D-Trp-Da-Asp-Phe(3-Br)-NH2] (Ac-W[Gly(octyl)]D[Phe(3-Br)]-NH2): the half-maximal effective concentration (EC50) in experiment [1] worked out at 362 nM; in experiment [2] (in presence of 10 nM CCK8) it was 3.82 µM.

On to `CCCC[C@H](NC(=O)[C@@H](Cc1c(C)[nH]c2ccccc12)NC(C)=O)C(=O)N[C@@H](CCCC(=O)O)C(=O)N[C@@H](Cc1cccc(Br)c1)C(N)=O` [HT-262, Ac-(2-Me-Trp)-Nle-Aa-Phe(3 Br)-NH2] (Ac-[dTrp(2-Me)][Nle][Aad][Phe(3-Br)]-NH2), for which the EC50 in experiment [1] was 1180 nM; in experiment [2] (setting [3]), above 10 µM.

On to `CCCCCC[C@@H](NC(C)=O)C(=O)N[C@@H](CCCC)C(=O)N[C@@H](CCC(=O)O)C(=O)N[C@@H](Cc1cccc(Br)c1)C(N)=O` [HT-263, Ac-Oa-Nle-Glu-Phe(3-Br)-NH2] (Ac-[dAoc(2)][Nle]E[Phe(3-Br)]-NH2), for which the concentration giving a half-maximal response (EC50) in experiment [1] was 64500 nM; in experiment [2] (setting [3]) it was above 10 µM.

`CCCCCCC[C@@H](NC(C)=O)C(=O)N[C@@H](CCCC)C(=O)N[C@@H](CCC(=O)O)C(=O)N[C@@H](Cc1cccc(Br)c1)C(N)=O` [HT-264, Ac-Na-Nle-Glu-Phe(3-Br)-NH2]: the EC50 in experiment [1] was 11000 nM; in experiment [2] (setting [3]), above 10 µM.

For `CCCCCCCC[C@@H](NC(C)=O)C(=O)N[C@@H](CCCC)C(=O)N[C@@H](CCC(=O)O)C(=O)N[C@@H](Cc1cccc(Br)c1)C(N)=O` [HT-265, Ac-Da-Nle-Glu-Phe(3-Br)-NH2] (Ac-[dGly(nOct)][Nle]E[Phe(3-Br)]-NH2), the half-maximal effective concentration (EC50) in experiment [1] was 13000 nM; in experiment [2] (setting [3]), above 10 µM.

In the case of `CCCCCCCCCCCCCC[C@@H](NC(C)=O)C(=O)N[C@@H](CCCC)C(=O)N[C@@H](CCCCCC)C(=O)N[C@@H](Cc1cccc(Br)c1)C(N)=O` [HT-266, Ac-Ha-Nle-Oa-Phe(3-Br)-NH2], the EC50 in experiment [1] was 40.2 nM; in experiment [2] (in presence of 10 nM CCK8), 1.29 µM.
